Reference: US8198033B2, “Methods and materials for observing apoptosis” (Genentech, Inc., priority 2006, dated 2012)
Where a SMILES comes first, the peptide text is derived from it. The star is where a group is joined. Cbz = O=C(OCc1ccccc1)*; CH2F = FC*

Key:
Type in all cases: cell-based, human
BJAB or Colo205 cells = experiment: Immunoblot for cleavage of clathrin-pathway components after DNA-damaging agents
Protocol: BJAB or Colo205 cells were treated with vinblastine, or adriamycin for the indicated time and analyzed by immunoblot as in FIG. 1.
Human colorectal adenocarcinoma Colo205 cells human B cell lymphoma BJAB cells and human T cell carcinoma Jurkat wild type cells (A3 clone), FADD-deficient (E1) and caspase-8-deficient (I9.3) were cultured in RPMI 1640+10% fetal bovine serum (FBS)+2 mM glutamine+1000 U/ml Penicillin-Streptomycin (Life Technologies). Human cervical carcinoma HeLa-M cells human breast adenocarcinoma MCF7 and human colorectal adenocarcinomas HCT15, HCT8, SW948, Colo320, human fibrosarcoma HT180 (ATCC), HCT116 Bax(−/−), HCT116 Bax(+/−) were grown in 50:50 Dulbecco's modified Eagle's and FK12 medium+10% FBS+1000 U/ml Penicillin-Streptomycin. cDNA clones encoding temperature-sensitive dynamins were the G273D mutant and dominant negative K44A mutant dynamin-1 (Dyn^G273D and Dyn^K44A, respectively). Dyn^G273D was expressed from pHUSH-ProEx, a single retroviral plasmid tetracycline-inducible expression system constructed at Genentech. […]

[1] = test system: AP2α, AP1/2β, clathrin heavy chain (CHC), dynamin; experiment: Immunoblot for cleavage of clathrin-dependent endocytosis machinery and caspases in cell lysates
Protocol: (b) Colo205 cells were treated as in (a) and analyzed by immunoblot for processing of specific components of various types of clathrin-associated endocytic trafficking.
Open arrows indicate cleavage products and solid arrows indicate full-length proteins.
(c) BJAB cells were treated with crosslinked Apo2L/TRAIL and processing of dynamin was determined by immunoblot.
The cells were analyzed by immunoblot for processing of caspase-8, caspase-9, caspase-3, and AP2α.
Human colorectal adenocarcinoma Colo205 cells human B cell lymphoma BJAB cells and human T cell carcinoma Jurkat wild type cells (A3 clone), FADD-deficient (E1) and caspase-8-deficient (I9.3) were cultured in RPMI 1640+10% fetal bovine serum (FBS)+2 mM glutamine+1000 U/ml Penicillin-Streptomycin (Life Technologies). Human cervical carcinoma HeLa-M cells human breast adenocarcinoma MCF7 and human colorectal adenocarcinomas HCT15, HCT8, SW948, Colo320, human fibrosarcoma HT180 (ATCC), HCT116 Bax(−/−), HCT116 Bax(+/−) were grown in 50:50 Dulbecco's modified Eagle's and FK12 medium+10% FBS+1000 U/ml Penicillin-Streptomycin. cDNA clones encoding temperature-sensitive dynamins were the G273D mutant and dominant negative K44A mutant dynamin-1 (Dyn^G273D and Dyn^K44A, respectively). Dyn^G273D was expressed from pHUSH-ProEx, a single retroviral plasmid tetracycline-inducible expression system constructed at Genentech. The cDNA was first cloned into a shuttle plasmid containing a CMV enhancer-promoter sequence with two copies of the tetracycline operator TetO2, then transferred via in vitro phage lamda-based recombination, or Gateway® technology (Invitrogen, Carlsbad), to a Moloney murine leukemia virus backbone vector in which the wild type Tet repressor is driven by a separate β-actin promoter and followed by an internal ribosomal entry sequence and puromycin selection cassette. Dyn^K44A was expressed from the 2-vector tetracycline-inducible retroviral expression system, pRevTet-On/pRev-Tre (Clontech), using serial infections. Retroviral vectors were transfected into Phoenix amphotropic Moloney Murine Leukemia Virus packaging cells using Lipofectamine 2000 […]. Retroviral particles were harvested and used in HeLa-M and BJAB cell infections as described previously (Simpson et al. J Cell Biol 137, 835-45, 1997). Dyn^G273 infected cells were puromycin selected (2-3 μg/ml) for 1-2 weeks and cloned either by manually picking individual HeLa-M colonies or by FACS sorting of resistant BJAB cells (gated for exclusion of propidium iodide) and single cell seeding in 96-well cell culture plates using an EPICS ELITE-ESP equipped with an Autoclone device (Coulter, Hialeah, Fla.). Cell clones were screened for uniformity of doxycycline inducible dynamin-1 expression by immunofluorescence microscopy. Dyn^K44A-infected cells were hygromycin B (400 μg/ml) and G418 (1 mg/ml) selected for 1-2 weeks. Induction with doxycycline (1 μg/ml) was performed at 32° C. for 72 hr as described previously (Damke et al. J Cell Biol 131, 69-80 1995). Vincristine sulfate (#T-117), Adriamycin.HCL (GR-319) were purchased from Biomol, tetracycline-free FBS from Hyclone, Puromycin from Clontech and Doxycyclin from Sigma. zVAD-fmk (asN-benzyloxycarbonyl-Val-Ala-Asp-fluoromethylketone) was obtained from MD Biosciences (#FK-009). […]

BJAB and Colo205 cells = experiment: Transferrin (Tf) endocytosis rate by flow cytometry; settings: BJAB cells, zVAD-fmk 30 min then 4 hr crosslinked Apo2L/TRAIL
Protocol: The cells were then equilibrated on ice for 30 min with Alexa-647-conjugated Tf (^647TF) and uptake at 37° C. was measured by flow cytometry. Each endocytosis rate was derived from the slope of the initial linear phase of a 4 min uptake kinetics plot (a, inset). […] Rates were normalized to the DMSO treated sample (±SEM).
Sedimented cells were resuspended in cold 2% paraformaldehyde/PBS and mean fluorescence intensity of 10,000 cells quantified with a Coulter Epics Elite-ESP flow cytometer (Hialeah, Fla.). Endocytic rates were determined from linear slopes of steady-state internal/surface plots (see, e.g., Wiley, H. S. et. al, J Biol Chem 257, 4222-9 (1982)). For temperature-shift experiments, ice binding incubations were avoided. Instead, cells were preconditioned for 20 min and maintained at 30° C. or 38° C. in binding medium, incubated an additional 0 (control) or 20 min with ^647Tf, chilled on ice for 30 min, and processed for flow cytometry to determine internal/surface ^647Tf ratios.

DISC = DISC immunoprecipitation; settings: BJAB cells chilled on ice
Protocol: (a) BJAB cells were equilibrated with ^647Tf on ice, incubated for the indicated uptake interval at 37° C. or on ice, then fluorescence quantified by flow cytometry. […] DISC-associated FADD and caspase-8 were visualized by immunoblot. (c, d) Dyn^G273D-transduced BJAB cells were treated with buffer (No Dox) or doxycyline (Dox) and shifted to 38° C. for 20 min to inactivate dynamin. The cells were treated with crosslinked Apo2L/TRAIL for the indicated amounts of time and the DISC was immunoprecipitated. DISC-associated FADD and caspase-8 were visualized by immunoblot (c) or DISC-associated caspase-8 activity was measured as described previously (Sharp et al. J Biol Chem 280, 19401-409, 2005).
BJAB cells (1×10^7 per time point) were treated with Flag-Apo2L/TRAIL cross-linked by anti-FLAG M2 Abs, collected, lysed, immunoprecipitated and the DISC was analyzed as described (see, e.g., Kischkel, F. C. et al., Immunity 12, 611-20 (2000)).

Molecule: COc1cccc2c1C(=O)c1c(O)c3c(c(O)c1C2=O)C[C@@](O)(C(=O)CO)C[C@@H]3O[C@H]1C[C@H](N)[C@H](O)[C@H](C)O1 [adriamycin]
- Cleavage of components of the clathrin machinery (BJAB or Colo205 cells): induced cleavage of components of the clathrin machinery, albeit with much slower kinetics than DR ligands

Molecule: CC[C@]1(O)C[C@@H]2CN(CCc3c([nH]c4ccccc34)[C@@](C(=O)OC)(c3cc4c(cc3OC)N(C)[C@H]3[C@@](O)(C(=O)OC)[C@H](OC(C)=O)[C@]5(CC)C=CCN6CC[C@]43[C@@H]65)C2)C1 [vinblastine]
- Cleavage of components of the clathrin machinery (BJAB or Colo205 cells): induced cleavage of components of the clathrin machinery, albeit with much slower kinetics than DR ligands

Molecule: CC(C)[C@H](NC(=O)OCc1ccccc1)C(=O)N[C@@H](C)C(=O)N[C@@H](CC(=O)O)C(=O)CF [zVAD-fmk, N-benzyloxycarbonyl-Val-Ala-Asp-fluoromethylketone, reference compound] (Cbz-Val-Ala-Asp-CH2F)
- Effect of pretreatment on ligand-induced cleavage of AP2α and CHC ([1]; BJAB cells, zVAD-fmk 20 μM 30 min then crosslinked Apo2L/TRAIL 1 μg/mL): prevented cleavage of AP2α and CHC
- Effect of pretreatment on Apo2L/TRAIL inhibition of Tf endocytosis (BJAB and Colo205 cells): substantially reversed this inhibition

B1: FasL: Flag-tagged FasL, crosslinked; SEQ ID NO: 9 (protein, listed as Homo sapiens)
chain: MQQPFNYPYPQIYWVDSSASSPWAPPGTVLPCPTSVPRRPGQRRPPPPPPPPPLPPPPPPPPLPPLPLPPLKKRGNHSTGLCLLVMFFMVLVALVGLGLGMFQLFHLQKELAELRESTSQMHTASSLEKQIGHPSPPPEKKELRKVAHLTGKSNSRSMPLEWEDTYGIVLLSGVKYKKGGLVINETGLYFVYSKVYFRGQSCNNLPLSHKVYMRNSKYPQDLVMMEGKMMSYCTTGQMWARSSYLGAVFNLTSADHLYVNVSELSLVNFEESQTFFGLYKL
modifications: Flag tag, crosslinked
- Cleavage of AP2α and CHC ([1]; BJAB cells, crosslinked ligand): stimulated cleavage of AP2α and CHC in BJAB cells comparably to Apo2L/TRAIL
- Processing of AP2α and CHC ([1]; caspase-8-deficient or FADD-deficient mutant Jurkat cell lines): neither ligand stimulated processing of these targets
- Cleavage of AP2α and CHC ([1]; wt Jurkat T cells): induced cleavage of AP2α and CHC
- DISC assembly with Tf endocytosis blocked (DISC): still recruited FADD and caspase-8 to their respective receptors and processed caspase-8
